Literature values as cited in patent US9212386B2, “Enzymatic cleavage based lateral flow assays” (Rapid Pathogen Screening, Inc., priority 2011, dated 2015).
*: point of attachment. FITC = O=C1OC2(c3ccc(O)cc3Oc3cc(O)ccc32)c2ccc(NC(=S)*)cc21; Ahx = NCCCCCC(=O)O

Tests used:
[1] = tested on: Bacterial Enzyme Targets (bacterial supernatants of tested micro-organisms); conditions: for In vitro Cleavage Activity (using FRET): micro-organisms whose enzymes cleave the peptide
[2] = tested on: Bacterial Enzyme Targets (tested micro-organisms); conditions: micro-organisms whose enzymes cleave the peptide

Substance	In vitro Cleavage Activity (using FRET) [1]	Ex vivo Cleavage activity (using FRET) [2]	selectivity of peptide cleavage [1]
FITC-Ahx-Gly-Gly-Gly-Gly-Lys-DABCYL ({FITC-Ahx}-GGGGK-{DABCYL})	P. aeruginosa	P. aeruginosa	–
FITC-Ahx-Leu-DVal-Lys-DABCYL [BikKam 6]	B. anthracis (moderate)	–	–
FITC-Ahx-Leu-DLeu-Lys-DABCYL [BikKam 1]	B. anthracis	–	highly selective for B. anthracis
